Reference: ChEMBL document CHEMBL1201862, “PubChem BioAssay data set” (2004)
Calls of active or inactive are those of the source.

Experiments:
H9c2 = test: cells; type: functional, cell-based; details: Rattus norvegicus, H9c2, Myocardium;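 note: confirmatory concentration-response retest of ultra-high-throughput screening hits for modulation of myocardial damage; cell death induced by hydrogen peroxide oxidative stress; compound pretreatment for 60 min then peroxide exposure for 2 h; potency is for protecting the cells against peroxide damage rather than for killing them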
[1] = target: FAD-linked sulfhydryl oxidase ALR (Homo sapiens, UniProt P55789); test: inhibitors of human ALR sulfhydryl oxidase, dose response, biochemical, H2O2 detection, luminescence, cherry-pick (AID 493248)
Chain of FAD-linked sulfhydryl oxidase ALR (P55789 whole entry): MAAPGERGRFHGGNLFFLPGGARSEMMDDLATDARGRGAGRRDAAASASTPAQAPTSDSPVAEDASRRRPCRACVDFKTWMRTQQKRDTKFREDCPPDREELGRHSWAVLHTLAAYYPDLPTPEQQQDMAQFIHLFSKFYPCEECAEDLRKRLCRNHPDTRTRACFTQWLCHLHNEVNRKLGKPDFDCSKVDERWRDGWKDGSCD

[2] = target: T1, Ubiquitin-conjugating enzyme E2 N (Homo sapiens, UniProt P61088); type: functional;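 note: Dose-response confirmation in a TR-FRET assay detecting UBC13-driven polyubiquitin chain formation, inhibition measured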
T1 sequence (P61088 whole entry): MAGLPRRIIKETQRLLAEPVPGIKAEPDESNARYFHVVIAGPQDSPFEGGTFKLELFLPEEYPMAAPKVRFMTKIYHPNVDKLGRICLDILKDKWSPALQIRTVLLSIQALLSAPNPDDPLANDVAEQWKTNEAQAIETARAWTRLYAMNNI

[3] = target: T2, DNA repair protein RAD52 homolog (Homo sapiens, UniProt P43351); type: functional, biochemical
T2 sequence (P43351 whole entry): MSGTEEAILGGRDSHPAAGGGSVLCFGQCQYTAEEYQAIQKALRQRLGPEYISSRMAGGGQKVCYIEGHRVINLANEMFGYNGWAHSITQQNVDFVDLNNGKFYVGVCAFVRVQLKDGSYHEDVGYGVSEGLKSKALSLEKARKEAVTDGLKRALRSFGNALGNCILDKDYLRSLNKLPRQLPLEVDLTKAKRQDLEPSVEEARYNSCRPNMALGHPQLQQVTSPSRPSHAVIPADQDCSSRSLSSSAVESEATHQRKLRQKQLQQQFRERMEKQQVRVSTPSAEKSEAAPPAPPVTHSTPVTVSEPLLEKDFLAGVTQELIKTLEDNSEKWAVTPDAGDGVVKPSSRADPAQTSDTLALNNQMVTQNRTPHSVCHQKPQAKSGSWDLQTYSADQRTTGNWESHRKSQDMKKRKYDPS

cells = type: functional
[4] = inhibitors of intracellular T. cruzi replication, confirmation, NIH3T3 host cells, beta-gal luminescence (AID 2044); type: functional, cell-based;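 note: intracellular parasites grown in NIH/3T3 mouse fibroblasts as host cells; luminescent beta-galactosidase reporter signal from transgenic T. cruzi replicating inside host cells; inhibitors lower the luminescence signal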
[5] = cytotoxicity toward NIH3T3 fibroblasts, dose response, counter-screen, cell-based, ATP luminescence, mouse fibroblasts (AID 2010); type: functional; details: NIH3T3;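 note: cells exposed to compound for about 90 hours before reading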
H4 = test: Luminescence Cell-Based Dose Response HTS to Identify Activators of 5'UTR Stem-Loop Driven Prion Protein mRNA Translation in H4 Neuroglioblastoma Cells. [Related pubchem assays: 1829 (Project Summary), 1814 (Primary HTS)]; type: functional; details: Homo sapiens
[6] = Luminescence Cell-Based Dose Response HTS to Identify Activators of Luciferase Translation or Activity in H4 […] Cells. [Related pubchem assays: 1829 (Project Summary), 1814 (Primary HTS)]; type: functional
[7] = Luminescence Cell-Based Dose Confirmation HTS to Identify Activators of 5'UTR Stem-Loop Driven Alpha-Synuclein mRNA Translation in H4 Neuroglioblastoma Cells. [Related pubchem assays: 1829 (Project Summary), 1814 (Primary HTS)]; type: functional
[8] = Luminescence Cell-Based Dose Retest to Confirm Inhibitors of Cancer Stem Cells. [Related pubchem assays (depositor defined):AID2717, AID2721]; type: functional; details: Homo sapiens
Protein RecA = target: T3, Protein RecA (Mycobacterium tuberculosis, UniProt P9WHJ3); test: Fluorescence Cell-Free Homogeneous Dose Retest to Identify Inhibitors of RecA-Intein Splicing Activity. [Related pubchem assays (depositor defined):AID2097, AID2223, AID489010, AID492950]; type: functional
T3 sequence (P9WHJ3 whole entry): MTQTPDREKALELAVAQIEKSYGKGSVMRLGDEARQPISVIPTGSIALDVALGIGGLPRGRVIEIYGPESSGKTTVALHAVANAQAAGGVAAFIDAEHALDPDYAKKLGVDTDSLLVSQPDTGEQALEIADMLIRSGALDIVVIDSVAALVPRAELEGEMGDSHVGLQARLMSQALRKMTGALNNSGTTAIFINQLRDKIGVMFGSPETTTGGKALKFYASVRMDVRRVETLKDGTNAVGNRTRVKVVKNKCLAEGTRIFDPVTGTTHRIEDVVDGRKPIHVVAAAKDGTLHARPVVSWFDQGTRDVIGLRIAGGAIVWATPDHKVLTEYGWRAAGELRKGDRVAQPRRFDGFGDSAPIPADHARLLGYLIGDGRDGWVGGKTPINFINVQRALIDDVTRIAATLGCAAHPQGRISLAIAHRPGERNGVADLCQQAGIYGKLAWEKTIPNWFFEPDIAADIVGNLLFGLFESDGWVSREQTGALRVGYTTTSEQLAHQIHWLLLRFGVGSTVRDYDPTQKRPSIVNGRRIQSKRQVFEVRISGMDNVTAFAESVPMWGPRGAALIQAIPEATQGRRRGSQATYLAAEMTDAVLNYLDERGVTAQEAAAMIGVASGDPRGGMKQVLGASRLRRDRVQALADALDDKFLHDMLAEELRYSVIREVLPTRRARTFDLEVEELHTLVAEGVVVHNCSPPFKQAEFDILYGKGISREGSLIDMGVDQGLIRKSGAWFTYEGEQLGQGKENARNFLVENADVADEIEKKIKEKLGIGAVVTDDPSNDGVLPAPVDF

[9] = target: T4, Replicative DNA helicase DnaB (Mycobacterium tuberculosis, UniProt P9WMR3); test: DnaB intein splicing inhibitors, dose response, biochemical, cell-free fluorescence (AID 449749); type: functional
T4 sequence (P9WMR3 whole entry): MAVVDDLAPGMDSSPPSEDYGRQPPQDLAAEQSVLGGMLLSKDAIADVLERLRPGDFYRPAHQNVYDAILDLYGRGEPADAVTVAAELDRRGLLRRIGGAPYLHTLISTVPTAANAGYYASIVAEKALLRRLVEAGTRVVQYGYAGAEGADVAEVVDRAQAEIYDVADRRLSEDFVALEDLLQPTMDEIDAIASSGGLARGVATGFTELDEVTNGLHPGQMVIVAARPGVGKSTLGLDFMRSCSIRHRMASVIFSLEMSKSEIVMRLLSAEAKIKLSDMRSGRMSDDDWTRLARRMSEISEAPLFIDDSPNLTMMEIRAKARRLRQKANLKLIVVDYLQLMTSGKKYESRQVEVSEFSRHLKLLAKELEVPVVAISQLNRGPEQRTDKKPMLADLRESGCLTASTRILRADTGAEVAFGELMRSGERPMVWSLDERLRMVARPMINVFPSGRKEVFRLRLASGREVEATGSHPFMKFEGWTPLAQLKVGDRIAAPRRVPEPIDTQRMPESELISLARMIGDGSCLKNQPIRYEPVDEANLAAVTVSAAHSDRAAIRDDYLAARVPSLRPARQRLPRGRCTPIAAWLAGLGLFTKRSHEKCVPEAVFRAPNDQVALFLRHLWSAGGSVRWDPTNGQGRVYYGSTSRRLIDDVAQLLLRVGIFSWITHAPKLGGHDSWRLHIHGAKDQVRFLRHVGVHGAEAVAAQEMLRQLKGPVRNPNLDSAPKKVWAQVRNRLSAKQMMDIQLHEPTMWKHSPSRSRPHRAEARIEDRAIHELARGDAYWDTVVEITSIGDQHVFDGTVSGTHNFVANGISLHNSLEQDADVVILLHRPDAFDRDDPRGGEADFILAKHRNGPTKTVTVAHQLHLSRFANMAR

[10] = target: T5, RNA-binding protein pos-1 (Caenorhabditis elegans, UniProt G5EF15); test: inhibitors of POS-1/mex-3 RNA binding, dose response, biochemical, fluorescence polarization (AID 1964);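 note: purified POS-1 fused to maltose binding protein made in E. coli; potency of compounds blocking POS-1 binding to fluorescent RNA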
T5 sequence (G5EF15 whole entry): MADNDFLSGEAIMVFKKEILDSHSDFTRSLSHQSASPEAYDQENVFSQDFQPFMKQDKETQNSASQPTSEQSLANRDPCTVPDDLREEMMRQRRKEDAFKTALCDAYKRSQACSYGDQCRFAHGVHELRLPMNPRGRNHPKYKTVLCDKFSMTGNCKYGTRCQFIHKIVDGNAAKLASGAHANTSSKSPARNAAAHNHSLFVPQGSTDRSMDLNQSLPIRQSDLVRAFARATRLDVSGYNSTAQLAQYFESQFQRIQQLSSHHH

[11] = target: T6, Zinc finger protein mex-5 (Caenorhabditis elegans, UniProt Q9XUB2); test: MEX-5/TCR-2 RNA interaction inhibitors, dose response, biochemical, C. elegans, fluorescence polarization (AID 1960)
T6 sequence (Q9XUB2 whole entry): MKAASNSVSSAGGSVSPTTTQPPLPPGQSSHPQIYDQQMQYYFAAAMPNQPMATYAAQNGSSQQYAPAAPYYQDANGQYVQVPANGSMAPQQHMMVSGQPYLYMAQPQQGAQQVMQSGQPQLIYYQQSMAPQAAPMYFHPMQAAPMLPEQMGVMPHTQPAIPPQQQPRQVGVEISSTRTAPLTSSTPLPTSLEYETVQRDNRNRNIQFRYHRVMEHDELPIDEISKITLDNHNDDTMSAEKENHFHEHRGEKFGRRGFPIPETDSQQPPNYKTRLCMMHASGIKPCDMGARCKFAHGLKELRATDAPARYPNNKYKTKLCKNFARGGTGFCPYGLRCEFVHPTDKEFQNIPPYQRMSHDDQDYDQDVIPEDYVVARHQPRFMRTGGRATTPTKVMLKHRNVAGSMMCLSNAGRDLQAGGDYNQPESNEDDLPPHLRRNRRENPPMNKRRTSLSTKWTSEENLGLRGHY

[12] = target: T7, Rac GTPase-activating protein 1 (Homo sapiens, UniProt Q9H0H5); test: MgcRacGAP GTPase-activating activity inhibitors, confirmation, biochemical, ADP Hunter fluorescence, primary and confirmatory (AID 624330); type: functional
T7 sequence (Q9H0H5 whole entry): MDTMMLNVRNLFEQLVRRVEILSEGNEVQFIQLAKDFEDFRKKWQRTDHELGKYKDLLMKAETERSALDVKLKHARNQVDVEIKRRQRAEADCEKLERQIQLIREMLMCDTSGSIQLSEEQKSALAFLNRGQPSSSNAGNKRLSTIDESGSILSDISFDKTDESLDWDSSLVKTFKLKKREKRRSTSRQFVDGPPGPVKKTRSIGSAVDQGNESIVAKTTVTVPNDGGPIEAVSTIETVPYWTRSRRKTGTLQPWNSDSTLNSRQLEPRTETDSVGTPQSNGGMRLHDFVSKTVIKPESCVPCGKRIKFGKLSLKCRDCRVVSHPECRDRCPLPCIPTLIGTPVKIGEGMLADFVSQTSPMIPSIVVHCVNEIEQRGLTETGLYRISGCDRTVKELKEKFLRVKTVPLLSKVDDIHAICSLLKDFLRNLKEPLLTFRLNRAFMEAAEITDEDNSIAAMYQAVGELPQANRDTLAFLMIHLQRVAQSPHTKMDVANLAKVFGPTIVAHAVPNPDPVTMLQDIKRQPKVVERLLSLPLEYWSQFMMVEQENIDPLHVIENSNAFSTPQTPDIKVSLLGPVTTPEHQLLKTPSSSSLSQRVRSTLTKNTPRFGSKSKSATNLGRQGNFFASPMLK

O=C(Cc1nnc(O)c2ccccc12)OCC(=O)c1ccccc1
IC50 (H9c2): 20.5 µM (active)

Cn1cccc1CC(=O)N/N=C/c1ccc([N+](=O)[O-])cc1
AC50 [1]: 6.99 µM (active)

CCOC(=O)CSc1nnc(CSc2nc(O)c3c4c(sc3n2)CCC4)n1C
IC50 (H9c2): > 79 µM (inactive)

Cc1ccc(C(=O)N/C(=C\c2ccc(-c3cccc([N+](=O)[O-])c3)o2)C(=O)NCCCN(C)C)cc1
IC50 [2]: > 20 µM (inactive) | AC50 [3]: 24.7 µM (active)

c1ccc2c(c1)nc(Nc1ccc3c(c1)OCO3)c1nnnn12
IC50 (H9c2): 5.99 µM (active)

O=C(c1ccc([N+](=O)[O-])cc1[N+](=O)[O-])N1CCc2ccccc21
IC50 (cells): 0.21 µM (active) | EC50 [4]: 0.7 µM (active) | EC50 [5]: > 60 µM (not active)

Brc1ccc(-c2ccc(CNCc3ccccn3)o2)cc1
IC50 (cells): 1.25 µM (active)

CCN1CCCC(OC(=O)c2cc(-c3ccc(C)cc3)nc3ccccc23)C1 (stereo not given)
EC50 (H4): > 120 µM (not active) | EC50 [6]: 31.1 µM (active) | AC50 [3]: 8.59 µM (active) | EC50 [7]: > 120 µM (not active)

COc1cc(OC)c2ccc(=O)oc2c1C(CC(=O)N1CCCC1)c1ccc(N(C)C)cc1 (stereo not given)
AC50 [1]: 2.89 µM (active)

Cc1cc(C(=O)NNc2ccc(F)cc2)no1
AC50 [1]: 10.5 µM (active) | AC50 [8]: 2.05 µM (active)

Cc1ccc(-c2nnc(COC(=O)c3cccs3)o2)cc1
IC50 (cells): 17.5 µM (active)

O=C(Nc1cccc([N+](=O)[O-])c1)c1[nH]ncc1Cl
AC50 [1]: 0.847 µM (active)

O=C(NCCc1c[nH]c2ccccc12)C(=O)NCC(c1ccco1)N1CCN(c2ccccc2F)CC1 (stereo not given)
IC50 (H9c2): 12.2 µM (active)

Cn1c(S)nnc1CSCc1ccc(Cl)c(Cl)c1
AC50 [1]: 3.93 µM (active)

COc1cc(/C(C)=N/NC(=O)CN2CCN(S(=O)(=O)c3ccc(C)cc3)CC2)ccc1O
AC50 [1]: 3.76 µM (active)

C[C@H](NC(=O)c1[nH]cnc1C(=O)NCC(=O)OCc1ccccc1)c1ccccc1
IC50 (H9c2): > 79 µM (inactive)

Cc1ccc(S(=O)(=O)N(C(=O)c2ccncc2)c2ccc(OC(=O)c3ccncc3)c3ccccc23)c(C)c1
EC50 (Protein RecA): 10 µM (active) | AC50 [9]: 15.4 µM (active)

CCOCc1c(C(=O)NC2=C(C(=O)OCC)C(CC)=Nc3ccccc3N2)oc2ccccc12
IC50 (H9c2): > 79 µM (inactive)

Cc1ccc(/N=C/c2cc(Br)cc(Cl)c2O)cc1
EC50 [10]: > 300 µM (not active) | IC50 (H9c2): 10.4 µM (active) | EC50 [11]: > 300 µM (not active)

COc1ccc(CNc2nc3ccccc3n2C(C)C)c(O)c1
AC50 [1]: 0.146 µM (active)

CCN(C(=O)CN1CCN(c2ccccc2O)CC1)c1c(N)n(Cc2ccccc2)c(=O)[nH]c1=O
AC50 [1]: 16.2 µM (active)

O=C(CSc1nc(O)c2ccccc2n1)N1CCN(S(=O)(=O)c2ccccc2)CC1
IC50 (H9c2): > 79 µM (inactive)

COc1ccc(N2CCN(C(=O)NC3CCCCC3)CC2)cc1
AC50 [1]: 5.03 µM (active) | IC50 [12]: 137 µM (active)

O=C(c1ccc([N+](=O)[O-])o1)N1CCN(Cc2ccccc2)CC1
IC50 (cells): 0.55 µM (active)
